Reference: patent US20180002319A1, “MACROCYCLIC PICOLINAMIDE COMPOUNDS WITH FUNGICIDAL ACTIVITY” (DOW AGROSCIENCES LLC, priority 2014, published 2018)
Where two headings read alike, the source gives them in different places.

Key:
Assay type in all cases: in vivo
[1] = tested on: Puccinia triticina; experiment: Wheat Brown Rust (PUCCRT) fungicidal activity; conditions: for pest or weed control at 100 ppm: High Volume application; for pest or weed control at 121.5 g/ha: Low Volume application, 121.5 g/H
Summary of the method: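 Yuma wheat seedlings at first-leaf stage sprayed to run-off with acetone/water (Triton X-100) solutions, inoculated with P. triticina spores before or after treatment. Overnight dark dew at 22° C, then greenhouse at 24° C; percent disease control from severity versus untreated plants.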

[2] = tested on: Glomerella lagenarium; Anamorph: Colletotrichum lagenarium; experiment: Cucumber Anthracnose (COLLLA) fungicidal activity; conditions: Colletotrichum orbiculare, 24 h, 1DP (1 Day Protectant), read-out: COLLLA Disease Control
Description: Technical grades of materials were dissolved in acetone, which were then mixed with nine volumes of H2O containing 110 ppm Triton X-100. The fungicide solutions were applied onto wheat seedlings using an automated booth sprayer to run-off. All sprayed plants were allowed to air dry prior to further handling. All fungicides were evaluated using the aforementioned method for their activity vs. all target diseases, unless stated otherwise. Wheat leaf blotch and brown rust activity were also evaluated using track spray applications, in which case the fungicides were formulated as EC formulations, containing 0.1% Trycol 5941 in the spray solutions. Wheat plants (variety Yuma) were grown from seed in a greenhouse in 50% mineral soil/50% soil-less Metro mix until the first leaf was fully emerged, with 7-10 seedlings per pot. These plants were inoculated with an aqueous spore suspension of Zymoseptoria tritici either prior to or after fungicide treatments. After inoculation the plants were kept in 100% relative humidity (one day in a dark dew chamber followed by two to three days in a lighted dew chamber at 20° C.) to permit spores to germinate and infect the leaf. The plants were then transferred to a greenhouse set at 20° C. for disease to develop. When disease symptoms were fully expressed on the 1st leaves of untreated plants, infection levels were assessed on a scale of 0 to 100 percent disease severity. Percent disease control was calculated using the ratio of disease severity on treated plants relative to untreated plants. Example N: Evaluation of Fungicidal Activity: Cucumber Anthracnose (Glomerella lagenarium; Anamorph: Colletotrichum lagenarium; Bayer Code COLLLA) Cucumber seedlings (variety Bush Pickle) were propagated in soil-less Metro mix, with each pot having one plant, and used in the test when 12 to 14 days old. Test plants were inoculated with an aqueous spore suspension of Colletotrichum lagenarium 24 hr after fungicide treatments. After inoculation the plants were kept in a dew room at 22° C. with 100% relative humidity for 48 hr to permit spores to germinate and infect the leaf. The plants were then transferred to a growth room set at 22° C. for disease to develop. Fungicide formulation, application and disease assessment on the sprayed leaves followed the procedures as described in the Example A.

[3] = tested on: Erysiphe cichoracearum; experiment: Powdery Mildew of Cucumber (ERYSCI) fungicidal activity; conditions: Golovinomyces cichoracearum, 24 h, 1DP (1 Day Protectant), read-out: ERYSCI Disease Control
Description: Technical grades of materials were dissolved in acetone, which were then mixed with nine volumes of H2O containing 110 ppm Triton X-100. The fungicide solutions were applied onto wheat seedlings using an automated booth sprayer to run-off. All sprayed plants were allowed to air dry prior to further handling. All fungicides were evaluated using the aforementioned method for their activity vs. all target diseases, unless stated otherwise. Wheat leaf blotch and brown rust activity were also evaluated using track spray applications, in which case the fungicides were formulated as EC formulations, containing 0.1% Trycol 5941 in the spray solutions. Wheat plants (variety Yuma) were grown from seed in a greenhouse in 50% mineral soil/50% soil-less Metro mix until the first leaf was fully emerged, with 7-10 seedlings per pot. These plants were inoculated with an aqueous spore suspension of Zymoseptoria tritici either prior to or after fungicide treatments. After inoculation the plants were kept in 100% relative humidity (one day in a dark dew chamber followed by two to three days in a lighted dew chamber at 20° C.) to permit spores to germinate and infect the leaf. The plants were then transferred to a greenhouse set at 20° C. for disease to develop. When disease symptoms were fully expressed on the 1st leaves of untreated plants, infection levels were assessed on a scale of 0 to 100 percent disease severity. Percent disease control was calculated using the ratio of disease severity on treated plants relative to untreated plants. Example F: Evaluation of Fungicidal Activity: Powdery Mildew of Cucumber (Erysiphe cichoracearum; Bayer Code […]) Cucumber seedlings (variety Bush Pickle) were grown in soil-less Metro mix, with one plant per pot, and used in the test when 12 to 14 days old. Plants were inoculated with a spore suspension 24 hr following fungicide treatments. After inoculation the plants remained in the greenhouse set at 20° C. until disease was fully expressed. Fungicide formulation, application and disease assessment on the sprayed leaves followed the procedures as described in the Example A.

[4] = 24 h, 1 day protectant, read-out: PUCCRT disease control, 1DP (1 Day Protectant)
[5] = 72 h, 3 day curative, read-out: PUCCRT disease control, 3DC (3 Day Curative)

| Structure (SMILES) | pest or weed control at 100 ppm [1, 4] | pest or weed control at 100 ppm [1, 5] | pest or weed control at 100 ppm [2] | pest or weed control at 121.5 g/ha [1, 4] | pest or weed control at 121.5 g/ha [1, 5] | pest or weed control at 100 ppm [3] |
| --- | --- | --- | --- | --- | --- | --- |
| CCCCO[C@H]1CCOC[C@H](NC(=O)c2nccc(OC)c2OCOC(C)=O)C(=O)O[C@@H](C)[C@@H]1OC(=O)C1CC1 [Compound 5] | > 80% | > 80% | < 80% | – | – | – |
| COc1ccnc(C(=O)N[C@H]2COCC[C@@H](OCC(C)C)[C@@H](OCC(C)C)[C@H](C)OC2=O)c1OCOC(C)=O [Compound 6] | > 80% | > 80% | > 80% | – | – | – |
| COc1ccnc(C(=O)N[C@H]2CCCC[C@H](Oc3ccccc3)[C@@H](Oc3ccccc3)[C@H](C)OC2=O)c1OCOC(C)=O [Compound 19] | > 80% | > 80% | – | > 80% | > 80% | < 80% |
| COc1ccnc(C(=O)N[C@H]2COCC[C@H](Cc3ccccc3)[C@@H](OCC(C)C)[C@H](C)OC2=O)c1OC(C)=O [Compound 21] | – | – | > 80% | > 80% | > 80% | < 80% |
| CCCCCO[C@H]1[C@H](C)OC(=O)[C@@H](NC(=O)c2nccc(OC)c2OCOC(C)=O)CCCC[C@@H]1Oc1ccccc1 [Compound 17] | > 80% | > 80% | – | – | – | < 80% |
| CCCCO[C@H]1CCOC[C@H](NC(=O)c2nccc(OC)c2OCOC(C)=O)C(=O)O[C@@H](C)[C@@H]1OC(=O)c1ccccc1 [Compound 4] | > 80% | > 80% | > 80% | > 80% | > 80% | – |
| COc1ccnc(C(=O)N[C@H]2COCC[C@H](Cc3ccccc3)[C@@H](OCC(C)C)[C@H](C)OC2=O)c1OCOC(C)=O [Compound 20] | – | – | > 80% | > 80% | > 80% | < 80% |
| COc1ccnc(C(=O)N[C@H]2CCOC[C@H](Oc3ccccc3)[C@@H](Oc3ccccc3)[C@H](C)OC2=O)c1OCOC(C)=O [Compound 37] | – | – | > 80% | > 80% | > 80% | – |
| CCCO[C@H]1[C@H](C)OC(=O)[C@@H](NC(=O)c2nccc(OC)c2OCOC(C)=O)CCCC[C@@H]1Oc1ccccc1 [Compound 18] | > 80% | > 80% | – | – | – | < 80% |
| CCCCO[C@H]1CCOC[C@H](NC(=O)c2nccc(OC)c2OCOC(C)=O)C(=O)O[C@@H](C)[C@@H]1OC(=O)C(C)C [Compound 3] | > 80% | > 80% | < 80% | – | – | – |
| CCCCO[C@H]1CCOC[C@H](NC(=O)c2nccc(OC)c2OCOC(C)=O)C(=O)O[C@@H](C)[C@@H]1OCc1ccccc1 [Compound 2] | > 80% | > 80% | > 80% | > 80% | > 80% | < 80% |
